Measured values as given in ChEMBL document CHEMBL4513161, “CO-ADD screening of MMV (CH) - Pandemic Response Box” (2021).
Converted amounts (≈) assume the structure as drawn.

How the values were obtained:
Acinetobacter baumannii = assay: microbe, parasite or virus in culture; conditions: ATCC 19606, 18 h, ASSAY_TEST Inhibition of Bacterial Growth, detection method Absorption (OD600), MEDIA CAMHB, plate type 384well, NBS, CORNING #3640
Description: Antibacterial activity against Acinetobacter baumannii ATCC 19606 (CO-ADD:GN_034); MIC in CAMBH media using NBS plates, by OD600

HEK293 = assay: cells; type: functional, Homo sapiens, ATCC CRL1573; conditions: Homo sapiens, ATCC CRL1573, HEK293; ASSAY_TEST Inhibition of Cell Viability; detection method Resazurin; Fluorescence (ex560/em590); MEDIA DMEM with 10% FBS; plate type 384well; TC; CORNING #3712; time 18 hr; read-out: CC50
Staphylococcus aureus = assay: microbe, parasite or virus in culture; conditions: ATCC 43300, 18 h, ASSAY_TEST Inhibition of Bacterial Growth, detection method Absorption (OD600), MEDIA CAMHB, plate type 384well, NBS, CORNING #3640
Description: Antibacterial activity against Staphylococcus aureus MRSA ATCC 43300 (CO-ADD:GP_020); MIC in CAMBH media, using NBS plates, by OD(600)

Pseudomonas aeruginosa [1] = assay: Antibacterial activity against Pseudomonas aeruginosa PAO397 [PAO1 d(mexAB-oprM) d(mexCD-oprJ) d(mexEF-oprN) d(mexJKL) d(mexXY) d(opmH)] (CO-ADD:GN_211); MIC in CAMBH media using NBS plates, by OD(600); type: functional; conditions: ASSAY_TEST Inhibition of Bacterial Growth, detection method Absorption (OD600), MEDIA CAMHB, plate type 384well, CORNING #3640, time 18 hr
Candida albicans = assay: microbe, parasite or virus in culture; conditions: ATCC 90028, ASSAY_TEST Inhibition of Fungal Growth, detection method Absorption (OD530), plate type 384well, NBS, CORNING #3640
Description: Antifungal activity against Candida albicans ATCC 90028 (CO-ADD:FG_001); MIC in YNB media using NBS plates, by OD630

Pseudomonas aeruginosa [2] = assay: microbe, parasite or virus in culture; conditions: ATCC 27853, 18 h, ASSAY_TEST Inhibition of Bacterial Growth, detection method Absorption (OD600), MEDIA CAMHB, plate type 384well, NBS, CORNING #3640
Description: Antibacterial activity against Pseudomonas aeruginosa ATCC 27853 (CO-ADD:GN_042); MIC in CAMBH media using NBS plates, by OD(600)

Klebsiella pneumoniae = assay: microbe, parasite or virus in culture; conditions: ATCC 700603, 18 h, ASSAY_TEST Inhibition of Bacterial Growth, detection method Absorption (OD600), MEDIA CAMHB, plate type 384well, NBS, CORNING #3640
Description: Antibacterial activity against Klebsiella pneumoniae MDR ATCC 70063 (CO-ADD:GN_003); MIC in CAMBH media using NBS plates, by OD(600)

Escherichia coli = assay: microbe, parasite or virus in culture; conditions: ATCC 25922, 18 h, ASSAY_TEST Inhibition of Bacterial Growth, detection method Absorption (OD600), MEDIA CAMHB, plate type 384well, NBS, CORNING #3640
Description: Antibacterial activity against Escherichia coli ATCC 25922 (CO-ADD:GN_001); MIC in CAMBH media using NBS plates, by OD(600)

Description for Cryptococcus neoformans: Antifungal activity against Cryptococcus neoformans H99 ATCC 208821 (CO-ADD:FG_002); MIC in YNB media using NBS plates, by Resazurin OD(600-570)

Row | MIC (Acinetobacter baumannii) [µM] | MIC (Staphylococcus aureus) [µM] | MIC (Pseudomonas aeruginosa [1]) [µM] | MIC (Candida albicans) [µM] | MIC (Cryptococcus neoformans) [µM] | MIC (Pseudomonas aeruginosa [2]) [µM] | MIC (Klebsiella pneumoniae) [µM] | MIC (Escherichia coli) [µM] | Structure (SMILES) | CC50 (HEK293) [µM]
1 | > 20 | > 20 | > 20 | > 20 | > 20 | > 20 | > 20 | > 20 | Nc1nc(N)c2c(Sc3ccccc3)cccc2n1 | 10.8
2 | > 20 | 10 (≈ 3.4 µg/mL) | > 20 | > 20 | > 20 | > 20 | > 20 | > 20 | O=S(=O)(NCB(O)O)c1cc2c(Cl)ccc(Cl)c2s1 | > 20
3 | > 20 | > 20 | > 20 | > 20 | > 20 | > 20 | > 20 | > 20 | Clc1cc2nc(C3CCNCC3)n(Cc3ccc(CNCCc4c[nH]cn4)cc3)c2cc1Cl | > 20
4 | > 20 | > 20 | > 20 | > 20 | > 20 | > 20 | > 20 | > 20 | O=C(CP(=O)(O)O)NCCc1cccc(Oc2ccccc2)c1 | > 20
5 | > 20 | > 20 | > 20 | > 20 | > 20 | > 20 | > 20 | > 20 | Nc1cccc(-c2nc(N)nc(NC3Cc4ccccc4C3)n2)c1 | > 20
6 | > 20 | > 20 | > 20 | > 20 | > 20 | > 20 | > 20 | > 20 | O=C(NCc1ccccc1Cl)c1cnc2ccccc2n1 | > 20
7 | > 20 | > 20 | > 20 | > 20 | > 20 | > 20 | > 20 | > 20 | C=C(C)n1c(=O)n(Cc2ccccc2C)c2ccccc21 | > 20
8 | > 20 | > 20 | > 20 | > 20 | > 20 | > 20 | > 20 | > 20 | Nc1nnc(-c2ccc(Cl)cc2)s1 | > 20
9 | > 20 | > 20 | > 20 | > 20 | > 20 | > 20 | > 20 | > 20 | O=C(NCc1cccc2ccccc12)c1cccs1 | > 20
10 | > 20 | > 20 | > 20 | > 20 | > 20 | > 20 | > 20 | > 20 | O=C(O)c1ccccc1Sc1ncnc2sc3c(c12)CCC3 | > 20
11 | > 20 | > 20 | > 20 | > 20 | > 20 | > 20 | > 20 | > 20 | NS(=O)(=O)c1ccc(NC(=O)NC(c2ccccc2)c2ccccc2)cc1 | > 20
12 | > 20 | > 20 | > 20 | > 20 | > 20 | > 20 | > 20 | > 20 | CCCCOC(=O)Nc1cc2nc(C3CCCCC3)[nH]c2cc1N(CC)CC | > 20
13 | > 20 | > 20 | > 20 | > 20 | > 20 | > 20 | > 20 | > 20 | O=C(Nc1ccccc1C(=O)O)c1cccc(Oc2ccccc2)c1 | > 20
14 | > 20 | > 20 | > 20 | > 20 | > 20 | > 20 | > 20 | > 20 | CCCCCCCCC(CP(=O)(O)C(C)N)C(=O)O (stereo not given) | > 20
15 | > 20 | > 20 | > 20 | > 20 | > 20 | > 20 | > 20 | > 20 | CCc1cc(Nc2cc(=O)n(CCN3CCN(C(=O)c4ccccc4)CC3)c(=O)[nH]2)ccc1C | > 20
16 | > 20 | > 20 | > 20 | > 20 | > 20 | > 20 | > 20 | > 20 | NC(=O)c1cnc2ccc(S(=O)(=O)c3ccccc3)cc2c1Nc1ccc(O)cc1 | > 20
17 | > 20 | > 20 | > 20 | > 20 | > 20 | > 20 | > 20 | > 20 | NC(=O)c1ccccc1NC(=O)c1ccc(C(=O)Nc2ccccc2C(N)=O)cc1 | > 20
18 | > 20 | > 20 | > 20 | > 20 | > 20 | > 20 | > 20 | > 20 | C(=C\c1nc2ccccc2[nH]1)/c1ccc2c(c1)OCO2 | > 20
19 | > 20 | > 20 | > 20 | > 20 | > 20 | > 20 | > 20 | > 20 | COc1ccc2cc3[n+](cc2c1OCCN(CCn1cncn1)Cc1ccc(F)cc1F)CCc1cc2c(cc1-3)OCO2 | > 20
20 | > 20 | > 20 | > 20 | > 20 | 20 (≈ 6.09 µg/mL) | > 20 | > 20 | > 20 | COc1ccc(NC(=O)CC2Sc3ncnn3C2=O)cc1 (stereo not given) | 19.5
21 | > 20 | > 20 | > 20 | > 20 | > 20 | > 20 | > 20 | > 20 | CC(C)(C)OC(=O)NCc1ccc(C(=O)N[C@H]2CCOC2=O)cc1 | > 20
22 | > 20 | > 20 | > 20 | > 20 | > 20 | > 20 | > 20 | > 20 | O=c1cc(OCc2ccccc2)ccn1Cc1ccccc1 | > 20
23 | > 20 | > 20 | > 20 | > 20 | > 20 | > 20 | > 20 | > 20 | O=[N+]([O-])c1ccc2c(CCc3c[nH]c4ccccc34)c[nH]c2c1 | > 20
24 | > 20 | 5 (≈ 1.45 µg/mL) | 5 (≈ 1.45 µg/mL) | > 20 | > 20 | 20 (≈ 5.81 µg/mL) | 10 (≈ 2.9 µg/mL) | 2.5 (≈ 0.726 µg/mL) | COc1cc(Cc2cc(N)nc(N)n2)cc(OC)c1OC | > 20
25 | > 20 | > 20 | > 20 | > 20 | > 20 | > 20 | > 20 | > 20 | CSC[C@H]1CN(Cc2c[nH]c3c(N)ncnc23)C[C@@H]1O | > 20
26 | > 20 | > 20 | > 20 | > 20 | > 20 | > 20 | > 20 | > 20 | O=C(Nc1ccc(Cl)c(C(F)(F)F)c1)C(CCCl)C(=O)Nc1ccc(Cl)c(C(F)(F)F)c1 | > 20
27 | > 20 | > 20 | > 20 | > 20 | > 20 | > 20 | > 20 | > 20 | NCCCc1ccccc1C(=O)Nc1ncc([N+](=O)O)s1 | > 20
28 | > 20 | > 20 | > 20 | > 20 | > 20 | > 20 | > 20 | > 20 | NC(=O)[C@@H]1CC[C@@H]2CN1C(=O)N2OS(=O)(=O)O | > 20
29 | > 20 | > 20 | > 20 | > 20 | > 20 | > 20 | > 20 | > 20 | CCN(CC)S(=O)(=O)c1ccc(Cl)c(C(=O)Nc2sc3c(c2C#N)CCCC3)c1 | > 20

Row | Structure (SMILES) | MIC (Acinetobacter baumannii) [µM] | MIC (Staphylococcus aureus) [µM] | MIC (Pseudomonas aeruginosa [1]) [µM] | MIC (Candida albicans) [µM] | MIC (Cryptococcus neoformans) [µM] | MIC (Pseudomonas aeruginosa [2]) [µM] | MIC (Klebsiella pneumoniae) [µM] | MIC (Escherichia coli) [µM] | CC50 (HEK293) [µM]
30 | CCCCCCCc1[nH]c2ccccc2c(=O)c1O | > 20 | > 20 | > 20 | > 20 | > 20 | > 20 | > 20 | > 20 | > 20
